Reference: patent US8865724B2, “Preparation of 2-methyl-4-amino-5(substituted-1H-1,2,3-triazolyl)methylpyrimidine derivatives and microbicidal activity thereof” (Central China Normal University, priority 2011, dated 2014)

System: Rice Sheath Blight Disease
Experiment: Microbicidal activity, spray then strip inoculation (Embodiment 8)
Settings: Oryza sativa, read-out: Rice Sheath Blight Disease Average inhibition rate (%)
Method: (§1) (Pseudomonassyringaepv. tomato (Okabe) Young, Dye & Wilkie), Cucumber Angular Leaf Spot, Rice Sheath Blight Disease (Rhizoctonia solani), Corynespora Leaf Spot of Cucumber (Corynespora cassiicola), Downy Mildew of Cucumber (Cucumber Downy Mildew).
(§2) Testing agents and control agents were sprayed uniformly at A.M. of a sunshine day on the cucumber seminal leaves. After 2 hours, the leaves were inoculated with pathogenic microbes and cultured at humidity. […] Strip inoculation is used for Rice Sheath Blight Disease and phytophthora blight of pepper, in which the liquor was sprayed and after 2 hours, inoculation of strips was performed followed by culturing at humidity. After full occurrence of diseases in the control group, state of illness was examined according to grading standards, and a disease index and inhibition rate were calculated.
Work on `COc1ccc(C(=CC(=O)N2CCOCC2)c2ccc(Cl)cc2)cc1OC` [Dimethomorph, reference compound] yielded a pest or weed control at 500 µg/g of 90%.
`COC(=O)NC(=S)Nc1ccccc1NC(=S)NC(=O)OC` [Thiophanate-methyl, reference compound] gave a pest or weed control at 500 µg/g of 85%.

Same assay, conditions: testing concentration of 500 μg/g
For jingangmycin [reference compound], the “Rice Sheath Blight Disease Average inhibition rate (%)” value was 70%.

System: not given
Experiment: not given
Settings: not given
In the case of `Cc1ccc(OCc2cn(Cc3cnc(C)nc3N)nn2)cc1` [Compound 17], the melting point is reported as 157 to 158 °C.
In the case of `Cc1ncc(Cn2cc(COc3ccccc3C)nn2)c(N)n1` [Compound 18], the melting point is reported as 153 to 154 °C.
In the case of `Cc1cccc(OCc2cn(Cc3cnc(C)nc3N)nn2)c1` [Compound 19], the melting point is reported as 58 to 59 °C.
Work on `Cc1ncc(Cn2cc(COc3ccc(F)cc3)nn2)c(N)n1` [Compound 20] yielded a melting point of 178 to 179 °C.
For `Cc1ncc(Cn2cc(COc3ccc(Br)cc3)nn2)c(N)n1` [Compound 21], the melting point was 167 to 168 °C.
Work on `Cc1ncc(Cn2cc(COc3ccc(C#N)cc3)nn2)c(N)n1` [Compound 22] yielded a melting point of 185 to 186 °C.
With `Cc1ncc(Cn2nnc(COc3ccc([N+](=O)[O-])cc3Cl)c2I)c(N)n1` [Compound 30] the melting point was 223 to 225 °C.
Molecule `Cc1ncc(Cn2cc(COC(=O)c3ccccc3Br)nn2)c(N)n1` [Compound 40] has a melting point of 174 to 176 °C.
Work on `Cc1ncc(Cn2cc(COC(=O)c3cccc([N+](=O)[O-])c3)nn2)c(N)n1` [Compound 41] yielded a melting point of 159 to 160 °C.
`Cc1ncc(Cn2cc(COC(=O)c3ccc([N+](=O)[O-])cc3Cl)nn2)c(N)n1` [Compound 42] showed a melting point of 129 to 130 °C.
In the case of `Cc1ncc(Cn2cc(CNC(=O)c3ccc(F)cc3)nn2)c(N)n1` [Compound 44], the melting point is reported as 211 to 212 °C.
In the case of `Cc1ccc(C(=O)NCc2cn(Cc3cnc(C)nc3N)nn2)cc1` [Compound 45], the melting point is reported as 132 to 133 °C.
For `Cc1ncc(Cn2cc(CNC(=O)c3ccccc3F)nn2)c(N)n1` [Compound 46], the melting point was 205 to 206 °C.
`Cc1ncc(Cn2cc(CNC(=O)c3ccc([N+](=O)[O-])cc3)nn2)c(N)n1` [Compound 47] gave a melting point of 239 to 240 °C.
Molecule `Cc1ncc(Cn2cc(CNC(=O)c3ccc(Cl)cc3)nn2)c(N)n1` [Compound 48] has a melting point of 165 to 167 °C.
In the case of `Cc1ncc(Cn2cc(CNC(=O)c3ccccc3Cl)nn2)c(N)n1` [Compound 49], the melting point is reported as 217 to 218 °C.
In the case of `Cc1ncc(Cn2cc(CNC(=O)c3cccc(Cl)c3)nn2)c(N)n1` [Compound 50], the melting point is reported as 213 to 214 °C.
In the case of `Cc1ncc(Cn2cc(CNC(=O)c3ccc([N+](=O)[O-])cc3Cl)nn2)c(N)n1` [Compound 51], the melting point is reported as > 260 °C.
`Cc1ncc(Cn2cc(CNC(=O)c3ccccc3Br)nn2)c(N)n1` [Compound 52] showed a melting point of 233 to 234 °C.
With `Cc1ncc(Cn2cc(CNC(=O)c3cccc([N+](=O)[O-])c3)nn2)c(N)n1` [Compound 53] the melting point was 188 to 189 °C.
For `Cc1ncc(Cn2cc(COC(=O)COc3ccc(Cl)c(C)c3)nn2)c(N)n1` [Compound 55], the melting point was 163 to 165 °C.
`Cc1ncc(Cn2cc(COC(=O)COc3ccc(Cl)cc3)nn2)c(N)n1` [Compound 56] gave a melting point of 152 to 153 °C.
`Cc1ccc(OCC(=O)OCc2cn(Cc3cnc(C)nc3N)nn2)cc1` [Compound 57] gave a melting point of 149 to 151 °C.
Work on `COc1ccc(OCC(=O)OCc2cn(Cc3cnc(C)nc3N)nn2)cc1` [Compound 58] yielded a melting point of 128 to 129 °C.
For `Cc1ncc(Cn2cc(COC(=O)COc3ccc(Cl)cc3C)nn2)c(N)n1` [Compound 59], the melting point was 138 to 140 °C.
Work on `Cc1ncc(Cn2cc(COC(=O)COc3ccc(F)cc3Cl)nn2)c(N)n1` [Compound 60] yielded a melting point of 144 to 146 °C.
For `Cc1ncc(Cn2cc(COC(=O)COc3ccc(C(C)(C)C)cc3)nn2)c(N)n1` [Compound 61], the melting point was 107 to 110 °C.
With `Cc1ncc(Cn2cc(COC(=O)COc3cccc(C(F)(F)F)c3)nn2)c(N)n1` [Compound 62] the melting point was 138 to 140 °C.
`Cc1ncc(Cn2cc(COC(=O)COc3cccc(C)c3C)nn2)c(N)n1` [Compound 63] showed a melting point of 168 to 171 °C.
`Cc1ncc(Cn2cc(COC(=O)COc3cc(Cl)c(Cl)c(Cl)c3)nn2)c(N)n1` [Compound 64] showed a melting point of 160 to 161 °C.
Work on `Cc1ncc(Cn2cc(COC(=O)COc3ccccc3[N+](=O)[O-])nn2)c(N)n1` [Compound 65] yielded a melting point of 158 to 160 °C.
With `Cc1ncc(Cn2cc(COC(=O)COc3ccc([N+](=O)[O-])cc3)nn2)c(N)n1` [Compound 66] the melting point was 145 to 148 °C.
`Cc1ncc(Cn2cc(COC(=O)COc3ccc([N+](=O)[O-])cc3Cl)nn2)c(N)n1` [Compound 67] gave a melting point of 145 to 148 °C.
Work on `Cc1ncc(Cn2cc(CNC(=O)COc3ccccc3Cl)nn2)c(N)n1` [Compound 69] yielded a melting point of 201 to 202 °C.
For `Cc1ccc(OCC(=O)NCc2cn(Cc3cnc(C)nc3N)nn2)cc1` [Compound 70], the melting point was 117 to 119 °C.
With `Cc1ncc(Cn2cc(CNC(=O)COc3ccc(Cl)cc3)nn2)c(N)n1` [Compound 71] the melting point was 124 to 125 °C.
`Cc1ncc(Cn2cc(CNC(=O)COc3ccc([N+](=O)[O-])cc3Cl)nn2)c(N)n1` [Compound 72] showed a melting point of 183 to 184 °C.
`Cc1ncc(Cn2cc(CNC(=O)COc3ccc([N+](=O)[O-])cc3)nn2)c(N)n1` [Compound 73] showed a melting point of 143 to 144 °C.
With `Cc1ncc(Cn2cc(CNC(=O)COc3ccc(Br)cc3)nn2)c(N)n1` [Compound 74] the melting point was 105 to 106 °C.
`COc1ccc(OCC(=O)NCc2cn(Cc3cnc(C)nc3N)nn2)cc1` [Compound 75] gave a melting point of 165 to 166 °C.
`Cc1ncc(Cn2cc(CNC(=O)COc3cccc(C)c3C)nn2)c(N)n1` [Compound 77] gave a melting point of 169 to 170 °C.
With `Cc1ncc(Cn2cc(CNC(=O)COc3ccccc3)nn2)c(N)n1` [Compound 78] the melting point was 168 to 169 °C.
Work on `Cc1ncc(Cn2cc(CNC(=O)COc3ccc(F)cc3Cl)nn2)c(N)n1` [Compound 79] yielded a melting point of 125 to 126 °C.
Molecule `Cc1ncc(Cn2nnc(COc3ccccc3[N+](=O)[O-])c2I)c(N)n1` [Compound 80] has a melting point of 178 to 180 °C.
In the case of `Cc1ncc(Cn2nnc(COc3cccc(C(F)(F)F)c3)c2I)c(N)n1` [Compound 81], the melting point is reported as 146 to 148 °C.
`Cc1ncc(Cn2nnc(COc3ccc(Cl)cc3Cl)c2I)c(N)n1` [Compound 83] gave a melting point of 176 to 177 °C.
`Cc1ncc(Cn2nnc(COc3ccccc3Br)c2I)c(N)n1` [Compound 85] showed a melting point of 145 to 147 °C.
`CCOC(=O)c1ccc(OCc2nnn(Cc3cnc(C)nc3N)c2I)cc1` [Compound 87] showed a melting point of 146 to 147 °C.
For `Cc1ncc(Cn2nnc(COC(=O)c3ccccc3Cl)c2I)c(N)n1` [Compound 89], the melting point was 185 to 187 °C.
`Cc1ncc(Cn2nnc(COC(=O)c3cccc(Cl)c3)c2I)c(N)n1` [Compound 90] showed a melting point of 185 to 187 °C.
In the case of `Cc1ncc(Cn2nnc(COC(=O)c3ccc(Cl)cc3)c2I)c(N)n1` [Compound 91], the melting point is reported as 192 to 193 °C.
In the case of `Cc1ccc(C(=O)OCc2nnn(Cc3cnc(C)nc3N)c2I)cc1` [Compound 92], the melting point is reported as 200 to 201 °C.
In the case of `Cc1ncc(Cn2nnc(COC(=O)c3ccccc3F)c2I)c(N)n1` [Compound 93], the melting point is reported as 187 to 188 °C.
In the case of `Cc1ncc(Cn2nnc(COC(=O)c3ccc(F)cc3)c2I)c(N)n1` [Compound 94], the melting point is reported as 207 to 209 °C.
With `Cc1ncc(Cn2nnc(COC(=O)c3ccc([N+](=O)[O-])cc3)c2I)c(N)n1` [Compound 95] the melting point was 192 to 193 °C.
`Cc1ncc(Cn2nnc(COC(=O)c3ccc([N+](=O)[O-])cc3Cl)c2I)c(N)n1` [Compound 96] showed a melting point of 183 to 184 °C.
Work on `Cc1ncc(Cn2nnc(COC(=O)c3cccc([N+](=O)[O-])c3)c2I)c(N)n1` [Compound 97] yielded a melting point of 201 to 202 °C.
`Cc1ncc(Cn2nnc(COC(=O)c3ccccc3Br)c2I)c(N)n1` [Compound 98] showed a melting point of 200 to 202 °C.
`Cc1ncc(Cn2nnc(CNC(=O)c3cccc(Cl)c3)c2I)c(N)n1` [Compound 99] gave a melting point of 197 to 198 °C.
For `Cc1ncc(Cn2nnc(CNC(=O)c3ccccc3Cl)c2I)c(N)n1` [Compound 100], the melting point was 186 to 188 °C.
With `Cc1ncc(Cn2nnc(CNC(=O)c3ccc([N+](=O)[O-])cc3)c2I)c(N)n1` [Compound 101] the melting point was 223 to 224 °C.
With `Cc1ncc(Cn2nnc(CNC(=O)c3ccccc3)c2I)c(N)n1` [Compound 102] the melting point was 218 to 220 °C.
For `Cc1ncc(Cn2nnc(CNC(=O)c3ccc(Cl)cc3)c2I)c(N)n1` [Compound 103], the melting point was 231 to 233 °C.
`Cc1ncc(Cn2nnc(CNC(=O)c3ccc(F)cc3)c2I)c(N)n1` [Compound 104] showed a melting point of 217 to 219 °C.
Molecule `Cc1ncc(Cn2nnc(CNC(=O)c3ccccc3F)c2I)c(N)n1` [Compound 105] has a melting point of 204 to 206 °C.
`Cc1ccc(C(=O)NCc2nnn(Cc3cnc(C)nc3N)c2I)cc1` [Compound 106] gave a melting point of 180 to 182 °C.
`Cc1ncc(Cn2nnc(CNC(=O)c3ccc([N+](=O)[O-])cc3Cl)c2I)c(N)n1` [Compound 107] showed a melting point of 183 to 184 °C.
Molecule `Cc1ncc(Cn2nnc(CNC(=O)c3cccc([N+](=O)[O-])c3)c2I)c(N)n1` [Compound 108] has a melting point of 202 to 204 °C.
`Cc1ncc(Cn2nnc(CNC(=O)c3ccccc3Br)c2I)c(N)n1` [Compound 109] gave a melting point of 200 to 202 °C.

System: Corynespora Leaf Spot of Cucumber
Experiment: Microbicidal activity on cucumber seedlings, spray then spore inoculation (Embodiment 8)
Settings: Corynespora, in Cucumis sativus, read-out: Corynespora Leaf Spot of Cucumber Average inhibition rate (%)
Method: as §1, §2
`COc1ccc(C(=CC(=O)N2CCOCC2)c2ccc(Cl)cc2)cc1OC` [Dimethomorph, reference compound] gave a pest or weed control at 500 µg/g of 70%.
Molecule `COC(=O)NC(=S)Nc1ccccc1NC(=S)NC(=O)OC` [Thiophanate-methyl, reference compound] has a pest or weed control at 500 µg/g of 80%.

Same assay, conditions: testing concentration of 500 μg/g
With jingangmycin [reference compound] the “Corynespora Leaf Spot of Cucumber Average inhibition rate (%)” value was 70%.

System: Downy Mildew of Cucumber
Experiment: as above
Settings: Cucumis sativus, read-out: Downy Mildew of Cucumber Average inhibition rate (%)
Method: as §1, §2
Molecule `COc1ccc(C(=CC(=O)N2CCOCC2)c2ccc(Cl)cc2)cc1OC` [Dimethomorph, reference compound] has a pest or weed control at 500 µg/g of 90%.
In the case of `COC(=O)NC(=S)Nc1ccccc1NC(=S)NC(=O)OC` [Thiophanate-methyl, reference compound], the pest or weed control at 500 µg/g is reported as 20%.

Same assay, conditions: testing concentration of 500 μg/g
In the case of jingangmycin [reference compound], the “Downy Mildew of Cucumber Average inhibition rate (%)” value is reported as 70%.
